Earlier results in PMC5907794 (Journal of Medicinal Chemistry, 2018).

How the values were obtained:
[1] = ref 60−62
[2] = ref 60−63

## CC(=O)O[C@H]1C(=O)[C@@]2(C)[C@H]([C@H](OC(=O)c3ccccc3)[C@]3(O)C[C@H](OC(=O)[C@H](O)[C@@H](NC(=O)c4ccccc4)c4ccccc4)C(C)=C1C3(C)C)[C@]1(OC(C)=O)CO[C@@H]1C[C@@H]2O [Paclitaxel, paclitaxel]
[1]
  Solubility in aqueous media (in words): low solubility in aqueous media
[2]
  Dose-limiting side effects: severe dose-limiting side effects
